Data set [1] has as its system NHE1β. The note with it: background, nucleated erythrocytes; cited from earlier work.
Data set [2] is described as follows: Hematological profile in L1210-inoculated mice.
Excerpt: C57B mice were inoculated with L1210 lymphoblastic leukemia cells at an inoculum that causes leukemia in 100% of animals.
In data set [3] the test system is human microvascular cells. Briefly: Inhibition of endothelial cell cord formation in vitro. The format is cell-based. To be noted: Homo sapiens, Endothelial cell; Table II; read-out: Cord Formation, Minimum Effective Concentration. An excerpt: Endothelial cells have the capacity in vitro to form tubular aggregates resembling capillaries in various early stages of formation. This conversion occurs under relatively specific conditions, in which essential growth factors along with an effective substratum are provided. It has been shown that both the interaction of growth factors with the endothelial cell and its attachment to a substratum activate the NHE. The activation of this exchanger is believed to be required for subsequent morphologic transformation of the endothelial cell into a multicellular tubular structure.
To assess the effect of compounds on the cord-like structures formed by human microvascular cells when plated in the presence of VEFG (Vascular Endothelial Growth Factor) and basic fibroblast growth factor on a collagen matrix, a standard cord formation assay was used.

Data set [4] deals with chick embryo vitelline capillaries. Put plainly: Chick embryo vitelline capillary regression assay. Format: in vivo. Further details: key to vascular reactivity (capillary regression): +: Vascular reactivity; 0: No vascular reactivity; +/-: Equivocal reactivity. To be noted: for vascular reactivity (capillary regression): 60 min; for Chick embryo diss. assay, Minimum Effective Concentration: Table II; for effect on chick embryo vessels / blood: in words. As to the method: Using the chick embryo vitelline capillaries assay, compounds were tested for their ability to induce capillary regression. Each compound was applied in 0.1 ml of 15% Ficol 400 and PBS onto the embryo, and vascular regression was assessed after 60 minutes.
The 3-day chick embryo consists of an embryonic disc from which numerous vessels emerge and return, forming a "figure 8"-shaped structure--the embryo in the center with vascular loops extending outward over both poles. […] Following a lag period of around 15 minutes, the constriction of continuity between capillary and secondary vessels, generally on the "avenous" side, was observed. Continued pulsatile blood flow progressed, resulting in a "swelling" of the blind tube, followed by a pinching off of the remaining connection and formation of an enclosed vascular sac resembling a "blood island." This process progressed until only the largest vessels remained intact.

The subject of data set [5] is Xenopus tadpole. The note with it: stage 59-60, 10 μg/ml; in words.
The subject of data set [6] is B16 melanoma. Briefly: B16 melanoma growth in C57B mice. Format: in vivo, mouse. The note with it: compound 319, text subcutaneous, FIG. 6 legend intraperitoneal. As to the method:
The growth of B16 melanoma in C57B mice is dependent upon neovascularization.
Using the growth of B16 melanoma cells in C57B mice, a recognized model for the evaluation of inhibitors of angiogenesis on the growth of cancers, the effects of subcutaneous, intraperitoneal and oral administration of squalamine were evaluated.
In this model, there was observed little evidence of metastasis with or without treatment with chemotherapeutic agents.
Based on the idea that tumor growth involves both the clonal expansion of a malignant cell along with the development of a supporting vascular supply, a combination of compound 1436 with squalamine was tested to determine whether it would achieve a synergistic effect on solid tumor growth. This concept was evaluated in the B16 melanoma model.
Animals were implanted with B16 melanoma followed by treatment with compound 1436 or 1256 administered in a combined schedule or separately. […] Thus, a combination of these two compounds achieves a therapeutic benefit in tumors dependent on neovascularization that may prevent metastatic spread.

Data set [7] has as its system human melanoma. Put plainly: Growth of human melanoma cells over time / cell death. Format: cell-based.
Data set [8] can be described thus: Fasting blood glucose in mice. The format is in vivo, mouse (male CD-1). The note with it: mouse, in vivo, iv. How it is done: To study the effect of steroid administrator or the NHE responsible for secretion of insulin, several of the aminosterols from shark liver were administered to fasting mice. Male CD-1 mice were assigned to one of four treatment groups. Whole blood glucose was tested using glucometer (Lifescan Glucometer II and One Touch test strips). Statistical analysis was via one-way analysis of variance (ANOVA) followed by subsequent Bonferonni's t-test.

Data set [9] deals with Human ovarian carcinoma SKOV3. Briefly: Growth inhibition in vitro. Format: cell-based. The note with it: in words. The text has this: As set forth in Table 7 below, all malignant tumors evaluated in tissue culture, endothelial cells and vascular smooth muscle cells were sensitive to inhibition. Thus, compound 1436 has application in the control of growth factor dependent proliferation of many types of tissue.

The mark [10] stands for this setting: L1210 mice, cisplatin 8 mg/kg ip or compound 1436 10 mg/kg ip q4d.

Entries after “also recorded” stand apart in the source; their conditions may differ.

As for `N=C(N)NC(=O)c1nc(Cl)c(N)nc1N` [Amiloride], the “inhibition of NHE1β” value in data set [1] was “inhibited by high concentrations of amiloride”.
On to `N.N.[Cl][Pt][Cl]` [Cisplatin], for which, in data set [2] (setting [10]), the “RBC, Early Time” value is on record as 9.4 10^6 /mm^3; the “RBC, Late Time” value was 1.5 10^6 /mm^3; the “WBC, Early Time” value is 8.1 10^3 /mm^3; the “WBC, Late Time” value is given as 18.1 10^3 /mm^3. In [2] (in words), the hematological profile result was “profound anemia by day 28”.
In the case of `C[C@H](CCC(=O)O)[C@H]1CC[C@H]2[C@@H]3CC[C@H]4C[C@@H](NCCCNCCCCN)CC[C@]4(C)[C@H]3CC[C@]12C` [Compound 319], the minimal effective concentration in data set [3] stood at 13.8 µg/mL. Moreover, the “vascular reactivity (capillary regression)” value (from here on “vascular reactivity”) in data set [4] (0.001 μg applied) is listed as “+/-”; in data set [4] (0.01 μg applied), “+”; in [4] (0.1 μg applied), “+”; in data set [4] (1 μg applied), “+”; in [4] (10 μg applied) it was “+”. Also, the “Chick embryo diss. assay, Minimum Effective Concentration” value (from here on “Chick embryo diss. assay”) in [4] came to 0.001 µg. The “effect on chick embryo vessels / blood” value in data set [4] is given as “especially active”. For the same compound, the “pharmacological response in tadpole” value in [5] is recorded as “common vascular occlusive effect”. In addition, the figures for the “suppression of B16 melanoma tumor growth” value in [6] and in [6] (listed as compound 319) were “achieved control of B16 in C57B mice to an extent almost comparable to squalamine” and “suppression of murine melanoma in mice”, respectively.
In the case of `CC(C)CCC[C@@H](C)[C@H]1CC[C@H]2[C@@H]3CC[C@H]4C[C@@H](NCCCNCCCCNCCCN)CC[C@]4(C)[C@H]3CC[C@]12C` [Compound 353], the “effect on growth of melanoma” value in [7] (48 hours vs first 12 hours) is “most pronounced over 48 hours, with less of an effect noted within the first 12 hours of incubation”. For the same compound, the “mode of cell death / activity against melanoma” value in data set [7] (in words) was “potent activity against melanoma and a number of cancer cells; also recorded: apoptotic cell death has been induced”. Moreover, the “vascular reactivity” value in data set [4] (1 μg applied) is “+/-”. Besides, in data set [4], the “Chick embryo diss. assay” value is above 1 µg and the “effect on chick embryo vessels / blood” value is reported as “no effect on the chick embryo capillary bed”. The “pharmacological response in tadpole” value in data set [5] is listed as “effects like those produced by compound 1436”.
For the compound `COC(=O)CC[C@@H](C)[C@H]1CC[C@H]2[C@@H]3[C@H](O)C[C@@H]4C[C@@H](NCCN)CC[C@]4(C)[C@H]3CC[C@]12C` [Compound 409], the “vascular reactivity” value in data set [4] (1 μg applied) is given as 0. Also, in data set [4], the “Chick embryo diss. assay” value was above 1 µg. In addition, the “pharmacological response in tadpole” value in data set [5] is “functionally similar to compound 1437”.
Regarding `COC(=O)CC[C@@H](C)[C@H]1CC[C@H]2[C@@H]3[C@H](O)C[C@@H]4C[C@H](NCCN)CC[C@]4(C)[C@H]3CC[C@]12C` [Compound 410], the “vascular reactivity” value in data set [4] (0.001 μg applied) is given as 0; in [4] (0.01 μg applied), “+/-”; in [4] (0.1 μg applied) it was “+/-”; in data set [4] (1 μg applied) it was “+”. Further, the “Chick embryo diss. assay” value in data set [4] came out at 0.01 µg. For the same compound, the “pharmacological response in tadpole” value in data set [5] was “functionally similar to compound 1437”.
As to `C[C@H](CCC(=O)O)[C@H]1CC[C@H]2[C@@H]3[C@H](O)C[C@@H]4C[C@H](NCCCNCCCCNCCCN)CC[C@]4(C)[C@H]3CC[C@]12C` [Compound 412], the “vascular reactivity” value in data set [4] (0.001 μg applied) is 0; in [4] (0.01 μg applied) it was 0; in data set [4] (0.1 μg applied), 0; in [4] (1 μg applied), “+”. In addition, the “Chick embryo diss. assay” value in [4] came to 1 µg. The “pharmacological response in tadpole” value in data set [5] is “pharmacologic activity similar to that seen for FX 3”.
In the case of `C[C@H](CCC(=O)O)[C@H]1CC[C@H]2[C@@H]3[C@H](O)C[C@@H]4C[C@@H](NCCCNCCCCNCCCN)CC[C@]4(C)[C@H]3CC[C@]12C` [Compound 413], the “vascular reactivity” value in [4] (1 μg applied) turned out to be 0. Also, the “Chick embryo diss. assay” value in data set [4] is above 1 µg. Moreover, in data set [5], the “pharmacological response in tadpole” value was “effects like those produced by compound 1436”.
For the compound `C[C@H](CCC(=O)O)[C@H]1CC[C@H]2[C@@H]3[C@H](O)C[C@@H]4C[C@H](NCCN)CC[C@]4(C)[C@H]3CC[C@]12C` [Compound 414], the “vascular reactivity” value in [4] (1 μg applied) is recorded as 0. The “Chick embryo diss. assay” value in data set [4] was above 1 µg. Besides, in data set [5], the “pharmacological response in tadpole” value is recorded as “pharmacologic activity similar to Fraction 1”.
For `COC(=O)CC[C@@H](C)[C@H]1CC[C@H]2[C@@H]3CC[C@@H]4C[C@H](NCCN)CC[C@]4(C)[C@H]3C[C@H](O)[C@]12C` [Compound 416], the “Chick embryo diss. assay” value in data set [4] was above 1 µg. Besides, the “pharmacological response in tadpole” value in data set [5] is on record as “functionally similar to compound 1437”.
On to `COC(=O)CC[C@@H](C)[C@H]1CC[C@H]2[C@@H]3C[C@@H](O)[C@H]4C[C@H](NCCN)CC[C@]4(C)[C@H]3CC[C@]12C` [Compound 431], for which the “Chick embryo diss. assay” value in [4] is above 1 µg. Moreover, the “pharmacological response in tadpole” value in [5] is “functionally similar to compound 1437”.
For `COC(=O)CC[C@@H](C)[C@H]1CC[C@H]2[C@@H]3C[C@@H](O)[C@H]4C[C@@H](NCCN)CC[C@]4(C)[C@H]3CC[C@]12C` [Compound 432], in that order: above 1 µg and “functionally similar to compound 1437”.
For `C[C@H](CCC(=O)O)[C@H]1CC[C@H]2[C@@H]3C[C@@H](O)[C@H]4C[C@@H](NCCN)CC[C@]4(C)[C@H]3CC[C@]12C` [Compound 433], in that order: 1 µg and “functionally similar to compound 1437”.
For `COC(=O)CC[C@@H](C)[C@H]1CC[C@H]2[C@@H]3CC[C@H]4C[C@H](NCCCNCCCCNCCCN)CC[C@]4(C)[C@H]3CC[C@]12C` [Compound 458], in [4], the “Chick embryo diss. assay” value is above 1 µg. In addition, in data set [5], the “pharmacological response in tadpole” value was “pharmacologic activity similar to that seen for FX 3”.
With `COC(=O)CC[C@@H](C)[C@H]1CC[C@H]2[C@@H]3CC[C@H]4C[C@@H](NCCCNCCCCNCCCN)CC[C@]4(C)[C@H]3CC[C@]12C` [Compound 459], the “Chick embryo diss. assay” value in [4] is above 1 µg. Besides, the “pharmacological response in tadpole” value in [5] is listed as “pharmacologic activity similar to that seen for FX 3”.
As for `COC(=O)CC[C@@H](C)[C@H]1CC[C@H]2[C@@H]3C[C@@H](O)[C@H]4C[C@@H](NCCCNCCCCNCCCN)CC[C@]4(C)[C@H]3CC[C@]12C` [Compound 466], the “Chick embryo diss. assay” value in data set [4] amounted to 1 µg. In addition, in [5], the “pharmacological response in tadpole” value is on record as “pharmacologic activity similar to that seen for FX 3”.
Turning to `CC(C)C(CO)(CC[C@@H](C)[C@H]1CC[C@H]2[C@@H]3[C@H](O)C[C@H]4C[C@@H](NCCCNCCCCN)CC[C@]4(C)[C@H]3CC[C@]12C)OS(=O)(=O)O` (stereo partly shown) [Compound 1437], the “Chick embryo diss. assay” value in data set [4] was above 1 µg. Besides, the hyperglycemia result in data set [8] is “caused hyperglycemia in mice”. Besides, the anticancer activity entry in data set [9] is reported as “anticancer activity against the human ovarian carcinoma, SKOV3”.
